# Like-named read-outs stand apart in the source and are kept apart here.
# Columns and labels:
# Test in all cases: Kinase profiling in a biochemical assay panel (mobility shift assays and ELISA), %-inhibition at 1 μM; selectivity entropy
# [1] = target: T1, panel of more than 300 wild-type and mutant kinases (313 kinase panel) (Homo sapiens, UniProt O60285)
# T1 sequence (O60285 1-661): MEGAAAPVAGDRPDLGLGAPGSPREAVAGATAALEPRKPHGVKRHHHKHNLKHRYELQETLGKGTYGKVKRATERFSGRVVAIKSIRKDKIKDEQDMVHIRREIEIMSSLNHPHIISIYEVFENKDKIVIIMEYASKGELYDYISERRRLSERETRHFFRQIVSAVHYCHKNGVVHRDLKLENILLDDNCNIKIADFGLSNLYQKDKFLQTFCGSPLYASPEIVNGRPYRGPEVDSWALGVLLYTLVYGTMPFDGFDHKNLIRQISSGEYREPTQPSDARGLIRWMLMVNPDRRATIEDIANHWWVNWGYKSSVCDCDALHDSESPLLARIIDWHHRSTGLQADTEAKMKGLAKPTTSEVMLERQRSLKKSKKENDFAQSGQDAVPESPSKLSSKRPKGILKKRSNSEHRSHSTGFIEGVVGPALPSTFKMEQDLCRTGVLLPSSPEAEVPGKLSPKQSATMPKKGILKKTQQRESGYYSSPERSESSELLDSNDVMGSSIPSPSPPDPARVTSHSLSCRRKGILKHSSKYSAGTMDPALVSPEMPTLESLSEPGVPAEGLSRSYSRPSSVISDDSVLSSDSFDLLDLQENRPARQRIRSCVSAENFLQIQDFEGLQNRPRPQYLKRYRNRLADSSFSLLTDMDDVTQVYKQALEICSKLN
# [2] = target: panel of more than 300 wild-type and mutant kinases (313 kinase panel) (Homo sapiens, UniProt P06239)
# [3] = target: panel of more than 300 wild-type and mutant kinases (313 kinase panel) (Homo sapiens, UniProt Q02750); settings: kinase MAP2K1; compound at 1 μM
# [4] = target: panel of more than 300 wild-type and mutant kinases (313 kinase panel) (Homo sapiens, UniProt Q04912)
# [5] = target: panel of more than 300 wild-type and mutant kinases (313 kinase panel) (Homo sapiens, UniProt Q13131)
# [6] = target: panel of more than 300 wild-type and mutant kinases (313 kinase panel) (Homo sapiens, UniProt Q13233); settings: kinase MAP3K1; compound at 1 μM
# [7] = target: panel of more than 300 wild-type and mutant kinases (313 kinase panel) (Homo sapiens, UniProt Q8N4C8)
# [8] = target: T2, panel of more than 300 wild-type and mutant kinases (313 kinase panel) (Homo sapiens, UniProt Q9NRA0); settings: kinase SPHK2; 1 μM
# T2 sequence (Q9NRA0 1-654): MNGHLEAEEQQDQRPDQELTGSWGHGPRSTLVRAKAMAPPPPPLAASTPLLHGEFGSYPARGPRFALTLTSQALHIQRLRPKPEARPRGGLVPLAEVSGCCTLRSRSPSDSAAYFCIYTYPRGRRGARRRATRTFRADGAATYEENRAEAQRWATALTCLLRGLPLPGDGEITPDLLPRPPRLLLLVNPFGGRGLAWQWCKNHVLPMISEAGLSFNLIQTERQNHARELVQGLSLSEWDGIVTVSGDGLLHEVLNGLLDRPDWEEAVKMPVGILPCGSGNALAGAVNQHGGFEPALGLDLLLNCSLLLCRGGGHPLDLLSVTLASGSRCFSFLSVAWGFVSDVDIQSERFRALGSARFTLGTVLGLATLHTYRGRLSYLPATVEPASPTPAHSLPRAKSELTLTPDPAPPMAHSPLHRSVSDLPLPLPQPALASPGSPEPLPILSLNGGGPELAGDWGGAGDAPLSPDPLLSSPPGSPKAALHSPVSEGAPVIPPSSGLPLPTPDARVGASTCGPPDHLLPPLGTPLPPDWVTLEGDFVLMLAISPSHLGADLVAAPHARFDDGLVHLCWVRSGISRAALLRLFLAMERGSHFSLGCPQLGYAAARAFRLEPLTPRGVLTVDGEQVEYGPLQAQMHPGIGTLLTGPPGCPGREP
# [9] = target: panel of more than 300 wild-type and mutant kinases (313 kinase panel) (Homo sapiens, UniProt Q9P1W9); settings: kinase PIM2; 1 μM
# [10] = target: panel of more than 300 wild-type and mutant kinases (313 kinase panel) (Homo sapiens, UniProt Q9P286)
# [11] = target: panel of more than 300 wild-type and mutant kinases (313 kinase panel) (Homo sapiens, UniProt Q9UPE1); settings: kinase MSSK1; 1 μM
# [12] = system: panel of more than 300 wild-type and mutant kinases (313 kinase panel); settings: for %-inhibition of EGFR(d746-750): kinase EGFR(d746-750); for %-inhibition of EGFR(d746-750/T790M): kinase EGFR(d746-750/T790M)
# [13] = target: panel of more than 300 wild-type and mutant kinases (313 kinase panel) (Homo sapiens, UniProt Q13882)
# [14] = kinase AMPKα1/β1/γ1, 1 μM compound
# [15] = kinase EML4-ALK, compound at 1 μM
# Sequence of panel of more than 300 wild-type and mutant kinases (313 kinase panel) (Homo sapiens, UniProt Q13131) (Q13131 whole entry, change not shown): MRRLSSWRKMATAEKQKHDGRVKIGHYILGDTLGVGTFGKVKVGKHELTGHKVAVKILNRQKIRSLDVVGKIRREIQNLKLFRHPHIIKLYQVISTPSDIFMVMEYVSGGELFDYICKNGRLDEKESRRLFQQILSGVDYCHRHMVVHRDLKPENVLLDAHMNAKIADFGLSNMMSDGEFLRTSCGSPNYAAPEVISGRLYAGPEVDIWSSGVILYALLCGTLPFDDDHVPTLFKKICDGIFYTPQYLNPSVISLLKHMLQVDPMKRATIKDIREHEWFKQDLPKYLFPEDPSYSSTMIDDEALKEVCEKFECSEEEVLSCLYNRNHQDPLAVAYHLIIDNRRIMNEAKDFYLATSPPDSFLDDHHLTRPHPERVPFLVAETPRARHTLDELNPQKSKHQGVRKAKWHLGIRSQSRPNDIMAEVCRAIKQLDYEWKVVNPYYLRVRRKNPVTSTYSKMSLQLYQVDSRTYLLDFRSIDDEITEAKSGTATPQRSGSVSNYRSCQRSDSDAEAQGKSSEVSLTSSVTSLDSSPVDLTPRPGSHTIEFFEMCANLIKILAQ
# Sequence of panel of more than 300 wild-type and mutant kinases (313 kinase panel) (Homo sapiens, UniProt P06239) (P06239 whole entry, change not shown): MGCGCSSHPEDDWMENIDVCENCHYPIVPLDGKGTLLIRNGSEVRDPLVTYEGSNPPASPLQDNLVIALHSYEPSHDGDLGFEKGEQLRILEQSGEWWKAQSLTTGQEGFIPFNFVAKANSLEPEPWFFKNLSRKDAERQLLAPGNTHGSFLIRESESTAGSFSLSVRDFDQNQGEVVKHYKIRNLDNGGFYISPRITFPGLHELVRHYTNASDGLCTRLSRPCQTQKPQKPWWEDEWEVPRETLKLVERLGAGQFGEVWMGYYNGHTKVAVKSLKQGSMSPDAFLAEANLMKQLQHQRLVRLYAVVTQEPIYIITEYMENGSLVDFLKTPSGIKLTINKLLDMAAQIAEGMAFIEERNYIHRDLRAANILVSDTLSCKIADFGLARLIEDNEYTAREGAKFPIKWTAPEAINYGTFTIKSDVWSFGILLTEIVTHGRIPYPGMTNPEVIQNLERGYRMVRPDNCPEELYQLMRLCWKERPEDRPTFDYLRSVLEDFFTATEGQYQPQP
# Sequence of panel of more than 300 wild-type and mutant kinases (313 kinase panel) (Homo sapiens, UniProt Q9P286) (Q9P286 whole entry, change not shown): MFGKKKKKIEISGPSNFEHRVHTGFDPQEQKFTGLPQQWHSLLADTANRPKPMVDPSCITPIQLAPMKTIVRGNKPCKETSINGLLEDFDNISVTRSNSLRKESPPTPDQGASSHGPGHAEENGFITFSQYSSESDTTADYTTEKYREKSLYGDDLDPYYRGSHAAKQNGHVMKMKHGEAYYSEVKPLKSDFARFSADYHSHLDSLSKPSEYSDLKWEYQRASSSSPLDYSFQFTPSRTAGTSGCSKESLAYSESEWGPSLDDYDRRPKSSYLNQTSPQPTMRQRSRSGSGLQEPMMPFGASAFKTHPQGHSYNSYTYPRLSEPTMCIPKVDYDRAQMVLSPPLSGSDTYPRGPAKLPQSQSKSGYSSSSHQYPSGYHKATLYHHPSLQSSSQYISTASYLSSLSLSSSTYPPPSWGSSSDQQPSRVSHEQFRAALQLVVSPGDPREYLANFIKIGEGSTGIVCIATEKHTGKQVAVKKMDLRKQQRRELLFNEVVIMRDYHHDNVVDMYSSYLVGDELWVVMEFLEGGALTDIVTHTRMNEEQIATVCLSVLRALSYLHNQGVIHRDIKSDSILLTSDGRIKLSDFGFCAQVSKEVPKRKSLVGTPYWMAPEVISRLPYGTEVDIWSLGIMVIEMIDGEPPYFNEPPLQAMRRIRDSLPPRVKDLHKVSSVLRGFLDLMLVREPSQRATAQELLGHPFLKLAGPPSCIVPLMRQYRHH
# Sequence of panel of more than 300 wild-type and mutant kinases (313 kinase panel) (Homo sapiens, UniProt Q8N4C8) (Q8N4C8 whole entry, change not shown): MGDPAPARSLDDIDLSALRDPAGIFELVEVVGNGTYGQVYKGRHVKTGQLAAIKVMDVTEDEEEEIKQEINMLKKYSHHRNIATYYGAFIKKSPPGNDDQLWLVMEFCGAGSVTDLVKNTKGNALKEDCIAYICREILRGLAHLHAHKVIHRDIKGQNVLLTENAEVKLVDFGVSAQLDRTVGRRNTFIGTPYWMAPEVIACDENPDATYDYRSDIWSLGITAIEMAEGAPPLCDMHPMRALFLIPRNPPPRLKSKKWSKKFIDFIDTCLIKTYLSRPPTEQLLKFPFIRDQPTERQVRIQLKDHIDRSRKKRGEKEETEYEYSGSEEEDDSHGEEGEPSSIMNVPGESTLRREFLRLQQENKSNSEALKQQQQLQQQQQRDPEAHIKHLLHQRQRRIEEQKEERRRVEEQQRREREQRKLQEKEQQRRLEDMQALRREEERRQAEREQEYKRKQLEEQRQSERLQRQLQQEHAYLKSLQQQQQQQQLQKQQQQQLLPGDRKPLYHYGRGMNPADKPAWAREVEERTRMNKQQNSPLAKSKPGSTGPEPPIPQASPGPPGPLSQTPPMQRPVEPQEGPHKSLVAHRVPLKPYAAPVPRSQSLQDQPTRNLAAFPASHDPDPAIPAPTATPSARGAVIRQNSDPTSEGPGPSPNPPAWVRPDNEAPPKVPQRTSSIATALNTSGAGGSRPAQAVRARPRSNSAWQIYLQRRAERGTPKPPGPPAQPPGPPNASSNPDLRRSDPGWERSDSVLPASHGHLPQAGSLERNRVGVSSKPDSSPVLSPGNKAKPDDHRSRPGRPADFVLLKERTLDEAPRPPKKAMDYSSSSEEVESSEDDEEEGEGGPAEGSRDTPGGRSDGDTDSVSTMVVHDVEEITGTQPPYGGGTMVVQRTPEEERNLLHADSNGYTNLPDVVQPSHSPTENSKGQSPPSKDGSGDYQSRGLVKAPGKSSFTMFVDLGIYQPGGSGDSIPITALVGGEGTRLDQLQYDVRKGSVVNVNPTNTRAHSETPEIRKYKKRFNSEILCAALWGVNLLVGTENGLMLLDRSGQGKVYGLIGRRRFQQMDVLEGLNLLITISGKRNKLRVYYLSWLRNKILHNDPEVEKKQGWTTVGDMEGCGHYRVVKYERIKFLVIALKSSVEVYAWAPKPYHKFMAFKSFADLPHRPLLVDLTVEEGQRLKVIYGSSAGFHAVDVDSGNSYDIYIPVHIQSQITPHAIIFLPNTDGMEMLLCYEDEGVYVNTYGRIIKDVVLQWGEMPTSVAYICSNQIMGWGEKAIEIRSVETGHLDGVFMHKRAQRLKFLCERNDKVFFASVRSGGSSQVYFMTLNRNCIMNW
# Sequence of panel of more than 300 wild-type and mutant kinases (313 kinase panel) (Homo sapiens, UniProt Q13233) (Q13233 whole entry, change not shown): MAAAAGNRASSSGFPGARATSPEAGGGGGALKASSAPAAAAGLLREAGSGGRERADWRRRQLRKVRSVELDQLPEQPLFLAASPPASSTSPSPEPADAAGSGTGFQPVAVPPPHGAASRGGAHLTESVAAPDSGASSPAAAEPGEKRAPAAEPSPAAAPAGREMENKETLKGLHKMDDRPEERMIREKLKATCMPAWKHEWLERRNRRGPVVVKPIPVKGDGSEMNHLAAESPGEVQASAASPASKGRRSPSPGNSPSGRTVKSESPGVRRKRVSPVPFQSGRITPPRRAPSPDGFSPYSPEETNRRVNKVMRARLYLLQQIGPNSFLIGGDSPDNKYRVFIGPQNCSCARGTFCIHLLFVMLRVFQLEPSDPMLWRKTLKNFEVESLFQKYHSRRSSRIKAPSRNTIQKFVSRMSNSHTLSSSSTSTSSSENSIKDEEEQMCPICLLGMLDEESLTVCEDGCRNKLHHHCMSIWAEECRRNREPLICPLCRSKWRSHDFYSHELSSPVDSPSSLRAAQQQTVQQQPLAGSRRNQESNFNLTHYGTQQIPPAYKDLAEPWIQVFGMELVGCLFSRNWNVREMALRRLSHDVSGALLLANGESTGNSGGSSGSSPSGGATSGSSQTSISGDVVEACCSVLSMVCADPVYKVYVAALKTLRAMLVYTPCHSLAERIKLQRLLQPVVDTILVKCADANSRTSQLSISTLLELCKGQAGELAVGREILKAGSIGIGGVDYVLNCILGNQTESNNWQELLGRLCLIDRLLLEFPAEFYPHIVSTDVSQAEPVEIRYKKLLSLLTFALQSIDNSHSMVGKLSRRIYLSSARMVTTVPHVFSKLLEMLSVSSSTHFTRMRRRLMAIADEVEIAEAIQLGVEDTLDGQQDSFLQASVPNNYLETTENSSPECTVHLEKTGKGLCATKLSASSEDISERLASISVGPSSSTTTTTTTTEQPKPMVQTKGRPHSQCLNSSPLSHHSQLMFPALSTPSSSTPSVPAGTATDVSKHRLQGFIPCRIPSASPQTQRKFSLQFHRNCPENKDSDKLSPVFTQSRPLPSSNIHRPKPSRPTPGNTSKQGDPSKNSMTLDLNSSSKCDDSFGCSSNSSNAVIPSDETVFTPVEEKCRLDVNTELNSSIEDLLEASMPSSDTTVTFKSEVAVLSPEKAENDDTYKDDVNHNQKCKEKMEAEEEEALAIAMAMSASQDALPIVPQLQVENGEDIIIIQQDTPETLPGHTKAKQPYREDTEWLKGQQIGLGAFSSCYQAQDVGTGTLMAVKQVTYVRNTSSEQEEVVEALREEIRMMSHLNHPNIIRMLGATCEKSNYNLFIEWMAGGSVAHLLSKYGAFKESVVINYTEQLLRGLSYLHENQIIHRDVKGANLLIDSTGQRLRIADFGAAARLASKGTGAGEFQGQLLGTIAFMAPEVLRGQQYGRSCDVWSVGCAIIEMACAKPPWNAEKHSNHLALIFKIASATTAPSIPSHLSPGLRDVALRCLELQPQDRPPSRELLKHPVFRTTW
# Sequence of panel of more than 300 wild-type and mutant kinases (313 kinase panel) (Homo sapiens, UniProt Q13882) (Q13882 whole entry, change not shown): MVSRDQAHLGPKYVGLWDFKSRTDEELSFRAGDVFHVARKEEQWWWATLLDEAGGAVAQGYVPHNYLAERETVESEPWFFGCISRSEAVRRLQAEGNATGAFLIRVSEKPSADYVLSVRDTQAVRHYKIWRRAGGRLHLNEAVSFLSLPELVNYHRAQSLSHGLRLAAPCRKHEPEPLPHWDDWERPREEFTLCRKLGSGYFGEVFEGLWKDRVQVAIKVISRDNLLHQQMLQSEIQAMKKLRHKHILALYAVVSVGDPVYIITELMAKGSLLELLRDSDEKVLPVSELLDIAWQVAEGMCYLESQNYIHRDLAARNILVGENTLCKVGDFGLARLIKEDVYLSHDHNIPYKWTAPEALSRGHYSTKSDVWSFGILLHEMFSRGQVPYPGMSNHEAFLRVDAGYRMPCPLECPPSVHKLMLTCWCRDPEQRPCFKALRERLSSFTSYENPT
SMILES,"%-inhibition of NuaK1 ([1]; kinase NuaK1, 1 μM) [%]","%-inhibition of LCK ([2]; kinase LCK, compound at 1 μM) [%]",%-inhibition of MAP2K1 [3] [%],"%-inhibition of RON ([4]; kinase RON, 1 μM) [%]","%-inhibition, AMPKα1/β1/γ1 [5, 14] [%]",%-inhibition of MAP3K1 [6] [%],"%-inhibition of MINK ([7]; kinase MINK, 1 μM) [%]",%-inhibition of SPHK2 [8] [%],%-inhibition of PIM2 [9] [%],"%-inhibition of PAK5 ([10]; kinase PAK5, 1 μM) [%]",%-inhibition of MSSK1 [11] [%],%-inhibition of EGFR(d746-750) ([12]; compound at 1 μM) [%],%-inhibition of EGFR(d746-750/T790M) ([12]; compound at 1 μM) [%],"%-inhibition of EML4-ALK [12, 15] [%]","%-inhibition of LYNb ([12]; kinase LYNb, compound at 1 μM) [%]","%-inhibition of NPM1-ALK ([12]; kinase NPM1-ALK, 1 μM) [%]","%-inhibition of PKCβ2 ([12]; kinase PKCβ2, 1 μM) [%]","%-inhibition of SRM ([12]; kinase SRM, 1 μM) [%]","%-inhibition of TAK1-TAB1 ([12]; kinase TAK1-TAB1, 1 μM) [%]","%-inhibition, BRK ([13]; kinase BRK, 1 μM compound) [%]",further results
COc1cc2nccc(Oc3ccc(NC(=O)C4(C(=O)Nc5ccc(F)cc5)CC4)cc3)c2cc1OC [cabozantinib],7,98,82,99,-1,36,-2,2,-12,-2.51,32,51,43,17,97,10,-0.178,99,4.37,,
CC(C)(C)c1nc(-c2cccc(NS(=O)(=O)c3c(F)cccc3F)c2F)c(-c2ccnc(N)n2)s1 [dabrafenib],7,83,,37,,-40,-0.772,-14,0.238,21,2.55,-1.84,6.41,-1.11,86,-3,-3,100,14,98,
CO[C@H]1C[C@@H]2CC[C@@H](C)[C@@](O)(O2)C(=O)C(=O)N2CCCC[C@H]2C(=O)O[C@H]([C@H](C)C[C@@H]2CC[C@@H](OCCO)[C@H](OC)C2)CC(=O)[C@H](C)/C=C(\C)[C@@H](O)[C@@H](OC)C(=O)[C@H](C)C[C@H](C)/C=C/C=C/C=C/1C [everolimus],4.27,-2.67,7.5,-6.45,-6,7,-7.49,1.25,-7,-1.87,-7,-4,-5,-3.62,-1.66,-5.62,-9,0.151,1.54,-4.32,
O=S(=O)(c1cccc2cnccc12)N1CCCNCC1 [fasudil],44,-7.52,5.3,-6,-14,1.37,-1.41,-21,-1.66,-6.61,-5.56,,,,,,,,,-6,
CS(=O)(=O)CCNCc1ccc(-c2ccc3ncnc(Nc4ccc(OCc5cccc(F)c5)c(Cl)c4)c3c2)o1 [lapatinib],3,12,21,1.17,-5,1.76,,-4,0.254,,-3,,,,,,,,,,"%-inhibition, BRK ([13]; 1 µM): 63%; %-inhibition of MINK ([7]; 1 µM): -0.581%; %-inhibition of PAK5 ([10]; 1 µM): -0.566%; %-inhibition of NPM1-ALK [12]: -3.28%; %-inhibition of LYNb ([12]; 1 µM): 7%; %-inhibition of PKCβ2 ([12]; 1 µM): -6%; %-inhibition of SRM ([12]; 1 µM): 13%"
Cc1cn(-c2cc(NC(=O)c3ccc(C)c(Nc4nccc(-c5cccnc5)n4)c3)cc(C(F)(F)F)c2)cn1 [nilotinib],,,-8,,,-18,3,6,7,3.39,-17,,,,,,,,,75,"%-inhibition of NuaK1 ([1]; 1 µM): -17%; %-inhibition of LCK ([2]; 1 µM): 90%; %-inhibition of RON ([4]; 1 µM): -13%; %-inhibition, AMPKα1/β1/γ1 ([5]; 1 µM): -12%; %-inhibition of NPM1-ALK [12]: -64%; %-inhibition of TAK1-TAB1 [12]: 5%; %-inhibition of EML4-ALK ([12]; 1 µM): -12%; %-inhibition of LYNb ([12]; 1 µM): 85%; %-inhibition of PKCβ2 ([12]; 1 µM): 1.66%; %-inhibition of SRM ([12]; 1 µM): 27%"
Cc1ccc(C(=O)Nc2ccc(CN3CCN(C)CC3)c(C(F)(F)F)c2)cc1C#Cc1cnc2cccnn12 [ponatinib],5,103,,39,46,-9,80,11,3.41,-0.481,17,,,,,,,,,97,

# Reference: article PMC3961306, “Comparison of the Cancer Gene Targeting and Biochemical Selectivities of All Targeted Kinase Inhibitors Approved for Clinical Use” (PLoS ONE, 2014)
